Measured values taken from US7625889B2, “Substituted bis aryl and heteroaryl compounds as selective 5HT2A antagonists” (Aventis Pharmaceuticals Inc., priority 2005, dated 2009).
Structures can show the parent of a compound that is named as a salt.

What follows are compounds tested against T1, human 5HT2A receptor (Homo sapiens, UniProt P28223) (assay: Receptor Binding Assay, 5HT2A ([3H]N-methyl spiperone)). Settings: BHK cells expressing human 5HT2A receptor, 2.5 nM [3H]N-methyl spiperone, 37° C.
T1 construct: expressed in transfected cells
Procedure: Cell Culture: BHK cells stably expressing the human 5HT2A receptor were maintained in Dulbecco's Modified Eagle's Medium supplemented with […] Geneticin, 1% Sodium Pyruvate, 1% Pen-Strep and 10% Fetal Calf Serum, and treated with 5 mM sodium butyrate for 24 h to increase receptor expression before harvesting. Cells were harvested by mechanical scraping, washed with Phosphate Buffered Saline, and stored at −80° C. in 10% DMSO in 1 mg/mil aliquots until used. Protein determination was made according to Lowry.
Receptor Binding Assays: The 5HT2A and D2L assays were conducted at 37° C. in a Tris buffer containing salts (50 mM Tris Buffer, pH 7.7; 120 mM NaCl; 5 mM KCl; 2 mM CaCl2; 1 mM MgCl2). Cell membranes (previously prepared and frozen) were rapidly thawed. Membranes were diluted to an appropriate concentration (to produce 100 μg protein/assay point for 5HT2A, and 58 μg protein/assay point for D2L) in Tris buffer and homogenized. Assays were conducted on 96-well plates, using 2.5 and 1 nM [^3H]N-methyl spiperone as radioligand for 5HT2A and D2L assays, respectively. Plates were incubated at 37° C. in a shaking water bath for 30 and 60 min, for 5HT2A and D2L, respectively. Nonspecific binding was defined using 100 μM methylsergide and eticlopride, for 5HT2A and D2L, respectively.
Assays were terminated by rapid filtration through Millipore MAFB or MAFC (5HT2C) filter plates (presoaked in 50 mM Tris HCl, pH 7.7, with 0.1% Brij) using a Millipore Cell Harvester. The filter plates were then washed with ice-cold 50 mM Tris buffer, pH 7.7, and allowed to dry overnight. 50 μl of Microscint scintillation cocktail were added and the plates were counted in a Packard Topcount scintillation counter.
IC50 and Ki calculations were performed using nonlinear regression one-site competition analysis (GraphPad, Prism), with top and bottom limits held constant at 0% and 100% inhibition, respectively. The percent inhibition at each drug concentration was the average of duplicate determinations. Except where indicated, each determination was performed 2 to 5 times.

T1 sequence (P28223 whole entry): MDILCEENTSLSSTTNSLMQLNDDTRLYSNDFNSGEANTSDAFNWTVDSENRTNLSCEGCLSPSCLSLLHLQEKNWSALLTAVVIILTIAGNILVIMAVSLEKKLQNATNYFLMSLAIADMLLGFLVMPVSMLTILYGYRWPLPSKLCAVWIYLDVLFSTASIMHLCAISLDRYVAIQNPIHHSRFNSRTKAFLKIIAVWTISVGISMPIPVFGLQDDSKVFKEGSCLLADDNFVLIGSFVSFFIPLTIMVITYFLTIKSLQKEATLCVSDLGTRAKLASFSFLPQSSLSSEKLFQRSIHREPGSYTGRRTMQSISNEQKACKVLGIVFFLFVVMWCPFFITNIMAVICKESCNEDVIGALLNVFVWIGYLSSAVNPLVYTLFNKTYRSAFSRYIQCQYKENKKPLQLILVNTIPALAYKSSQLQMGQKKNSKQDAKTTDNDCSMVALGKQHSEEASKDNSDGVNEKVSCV

| Compound | Ki [nM] |
| --- | --- |
| O=C(c1ccc(F)cc1)N(Cc1cc(-c2ccc3[nH]ccc3c2)ccc1F)[C@H]1CN2CCC1CC2 [Example 77, N-(1-Aza-bicyclo[2.2.2]oct-3R-yl)-4-fluoro-N-[2-fluoro-5-(1H-indol-6-yl)-benzyl]-benzamide] | 0.49 |
| O=C(c1ccc(F)cc1)N(Cc1cc(-c2ccc3[nH]c(=O)oc3c2)ccc1F)C1CN2CCC1CC2 (centres unmarked) [Example 78] | 0.76 |
| O=C(c1ccc(F)cc1)N(Cc1cc(-c2ccc3[nH]c(=O)oc3c2)ccc1F)[C@H]1CN2CCC1CC2 [Example 79] | 0.61 |
| Fc1ccc(CN(Cc2cc(-c3ccc4[nH]nnc4c3)ccc2F)C[C@H]2CCCN2)cc1 [Example 80, [5-(1H-Benzothiazol-5-yl)-2-fluoro-benzyl]-(4-fluoro-benzyl)-pyrrolidin-2R-ylmethyl-amine trihydrochloride] | 14.9 |
| Fc1ccc(CN(Cc2cc(-c3ccc4[nH]ncc4c3)ccc2F)C[C@@H]2CCCN2)cc1 [Example 81] | 2 |
| Fc1ccc(CN(Cc2cc(-c3ccc4[nH]ncc4c3)ccc2F)C2CCNCC2)cc1 [Example 82] | 0.51 |
| CNCCN(Cc1ccc(F)cc1)Cc1cc(-c2ccc3[nH]ncc3c2)ccc1F [Example 83, N-(4-Fluoro-benzyl)-N-[2-fluoro-5-(1H-indazol-5-yl)-benzyl]-N′-methyl-ethane-1,2-diamine] | 0.82 |
| Fc1ccc(-c2ccc3[nH]nnc3c2)cc1CN(Cc1cccs1)C1CCNCC1 [Example 84, [5-(1H-Benzotriazol-5-yl)-2-fluoro-benzyl]-piperidin-4-yl-thiophen-2-ylmethyl-amine] | 0.37 |
| Fc1ccc(CN(Cc2cc(-c3ccc4[nH]nnc4c3)ccc2F)C2CCNCC2)cc1 [Example 85, [5-(1H-Benzotriazol-5-yl)-2-fluoro-benzyl]-(4-fluoro-benzyl)-piperidin-4-yl-amine] | 0.42 |
| CNCCN(Cc1ccc(F)cc1)Cc1cc(-c2ccc3[nH]nnc3c2)ccc1F [Example 86, N-[5-(1H-Benzotriazol-5-yl)-2-fluoro-benzyl]-N-(4-fluoro-benzyl)-N′-methyl-ethane-1,2-diamine] | 1.68 |
| CCN1CCC[C@H]1CN(Cc1ccc(F)cc1)Cc1cc(-c2ccc3[nH]nnc3c2)ccc1F [Example 87, [5-(1H-Benzotriazol-5-yl)-2-fluoro-benzyl]-(1-ethyl-pyrrolidin-2S-ylmethyl)-(4-fluoro-benzyl)-amine hydrochloride] | 14.2 |
| CN1CCC(N(Cc2ccc(F)cc2)Cc2cc(-c3ccc4[nH]nnc4c3)ccc2F)CC1 [Example 88, [5-(1H-Benzotriazol-5-yl)-2-fluoro-benzyl]-(4-fluoro-benzyl)-(1-methyl-piperidin-4-yl)-amine hydrochloride] | 1.16 |
| CN1CCC(N(Cc2ccc(F)cc2)Cc2cc(-c3ccc4[nH]c(=O)oc4c3)ccc2F)CC1 [Example 89, 6-(4-Fluoro-3-{[(4-fluoro-benzyl)-(1-methyl-piperidin-4-yl)-amino]-methyl}-phenyl)-3H-benzooxazol-2-one] | 1 |
| CN1CCC(N(Cc2ccc(F)cc2)Cc2cc(-c3ccc4[nH]ncc4c3)ccc2F)CC1 [Example 90, (4-Fluoro-benzyl)-[2-fluoro-5-(1H-indazol-5-yl)-benzyl]-(1-methyl-piperidin-4-yl)-amine] | 0.42 |
| CN1CCN(Cc2cc(-c3ccc4[nH]ccc4c3)ccc2F)C(c2ccco2)C1 (centres unmarked) [Example 93, 5-[4-Fluoro-3-(2-furan-2-yl-4-methyl-piperazin-1-ylmethyl)-phenyl]-1H-indole] | 0.6 |
| CN1CCN(Cc2cc(-c3ccc4[nH]ncc4c3)ccc2F)[C@@H](c2ccc(F)cc2)C1 [Example 96, 5-{4-Fluoro-3-[2S-(4-fluoro-phenyl)-4-methyl-piperazin-1-ylmethyl]-phenyl}-1H-indazole] | 0.89 |
| CN1CCN(Cc2cc(-c3ccc4[nH]c(=O)oc4c3)ccc2F)[C@@H](c2ccc(F)cc2)C1 [Example 97, 6-{4-Fluoro-3-[2S-(4-fluoro-phenyl)-4-methyl-piperazin-1-ylmethyl]-phenyl}-3H-benzooxazol-2-one] | 0.77 |
| CN1CCN(Cc2cncc(-c3ccc4[nH]ncc4c3)c2)[C@@H](c2ccc(F)cc2)C1 [Example 99, 5-{5-[2S-(4-Fluoro-phenyl)-4-methyl-piperazin-1-ylmethyl]-pyridin-3-yl}-1H-indazole] | 0.29 |

| Compound | Ki [nM] |
| --- | --- |
| O=C(c1ccc(F)cc1)N(CCCN1CCCC1)Cc1cc(-c2ccc3[nH]ncc3c2)ccc1F [Example 100, 4-Fluoro-N-[2-fluoro-5-(1H-indazol-5-yl)-benzyl]-N-(3-pyrrolidin-1-yl-propyl)-benzamide] | 0.6 |
| O=C(c1ccc(F)cc1)N(CCN1CCCC1)Cc1cc(-c2ccc3[nH]nnc3c2)ccc1F [Example 101, N-[5-(1H-Benzotriazol-5-yl)-2-fluoro-benzyl]-4-fluoro-N-(2-pyrrolidin-1-yl-ethyl)-benzamide] | 0.39 |
| CN1CCC(N(Cc2cc(-c3ccc4[nH]ncc4c3)ccc2F)C(=O)c2ccc(F)cc2)CC1 [Example 102, 4-Fluoro-N-[2-fluoro-5-(1H-indazol-5-yl)-benzyl]-N-(1-methyl-piperidin-4-yl)-benzamide] | 0.88 |
| O=C(c1ccc(F)cc1)N(Cc1cc(-c2ccc3[nH]ncc3c2)ccc1F)[C@H]1CN2CCC1CC2 [Example 103, N-(1-Aza-bicyclo[2.2.2]oct-3R-yl)-4-fluoro-N-[2-fluoro-5-(1H-indazol-5-yl)-benzyl]-benzamide] | 1.01 |
| CN1CCC(N(Cc2cc(-c3ccc4[nH]ccc4c3)ccc2F)C(=O)c2ccncn2)CC1 [Example 105, Pyrimidine-4-carboxylic acid [2-fluoro-5-(1H-indol-5-yl)-benzyl]-(1-methyl-piperidin-4-yl)-amide] | 3.8 |
| CN1CCC(N(Cc2cc(-c3ccc4[nH]ccc4c3)ccc2F)C(=O)c2cccnn2)CC1 [Example 106, Pyridazine-3-carboxylic acid [2-fluoro-5-(1H-indol-5-yl)-benzyl]-(1-methyl-piperidin-4-yl)-amide] | 9 |
| CN1CCC(N(Cc2cc(-c3ccc4[nH]ccc4c3)ccc2F)C(=O)c2ccnnc2)CC1 [Example 107, Pyridazine-4-carboxylic acid [2-fluoro-5-(1H-indol-5-yl)-benzyl]-(1-methyl-piperidin-4-yl)-amide] | 85 |
| CN1CCC(N(Cc2cc(-c3ccc4[nH]ccc4c3)ccc2F)C(=O)c2ncccn2)CC1 [Example 108, Pyrimidine-2-carboxylic acid [2-fluoro-5-(1H-indol-5-yl)-benzyl]-(1-methyl-piperidin-4-yl)-amide] | 16 |
| CC(C)Oc1ccc(C(=O)N(Cc2cc(-c3ccc4[nH]ccc4c3)ccc2F)C2CCN(C)CC2)cc1 [Example 110, N-[2-Fluoro-5-(1H-indol-5-yl)-benzyl]-4-isopropoxy-N-(1-methyl-piperidin-4-yl)-benzamide] | 85 |
| CC(C)Oc1cccc(C(=O)N(Cc2cc(-c3ccc4[nH]ccc4c3)ccc2F)C2CCN(C)CC2)c1 [Example 111, N-[2-Fluoro-5-(1H-indol-5-yl)-benzyl]-3-isopropoxy-N-(1-methyl-piperidin-4-yl)-benzamide] | 85 |
| CN1CCC(N(Cc2cc(-c3ccc4[nH]ccc4c3)ccc2F)C(=O)c2ccc(OC(F)(F)F)cc2)CC1 [Example 112, N-[2-Fluoro-5-(1H-indol-5-yl)-benzyl]-N-(1-methyl-piperidin-4-yl)-4-trifluoromethoxy-benzamide] | 6 |
| Fc1ccc([C@H]2CNCCN2Cc2cncc(-c3ccc4[nH]ncc4c3)c2)cc1 [Example 113, 5-{5-[2S-(4-Fluoro-phenyl)-piperazin-1-ylmethyl]-pyridin-3-yl}-1H-indazole] | 0.4 |
| Fc1ccc([C@H]2CNCCN2Cc2cncc(-c3ccc4[nH]ccc4c3)c2)cc1 [Example 114, 5-{5-[2S-(4-Fluoro-phenyl)-piperazin-1-ylmethyl]-pyridin-3-yl}-1H-indole acetate] | 0.48 |
| Fc1ccc([C@H]2CNCCN2Cc2cc(-c3ccc4[nH]ccc4c3)co2)cc1 [Example 115, 5-{5-[2S-(4-Fluoro-phenyl)-piperazin-1-ylmethyl]-furan-3-yl}-1H-indole] | 2.88 |
| Fc1ccc([C@H]2CNCCN2Cc2cc(-c3ccc4[nH]ncc4c3)co2)cc1 [Example 116, 5-{5-[2S-(4-Fluoro-phenyl)-piperazin-1-ylmethyl]furan-3-yl}-1H-indazole] | 1.79 |
| O=c1[nH]c2ccc(-c3coc(CN4CCNC[C@@H]4c4ccc(F)cc4)c3)cc2o1 [Example 117, 6-{5-[2S-(4-Fluoro-phenyl)-piperazin-1-ylmethyl]-furan-3-yl}-3H-benzooxazol-2-one acetate] | 4.79 |
| CN1CCC(N(Cc2ccc(F)cc2)Cc2cc(-c3ccc4[nH]c(=O)oc4c3)co2)CC1 [Example 118, 6-(5-{[(4-Fluoro-benzyl)-(1-methyl-piperidin-4-yl)-amino]-methyl}-furan-3-yl)-3H-benzooxazol-2-one] | 1.1 |
